According to publication PMC6406907, “A H2AX–CARP-1 Interaction Regulates Apoptosis Signaling Following DNA Damage” (Cancers, 2019):
No end group written: not given here.

How the values were obtained:
[1] = test system: MDA-MB-468 cells; conditions: 10 μM dose, ref [16]; cited from earlier work
Excerpt: Here, we utilized human TNBC MDA-MB-468 and human cervical cancer HeLa cells to conduct an MTT-based dose-response analysis using Adriamycin and CFM compounds. […] Since Adriamyci ...

[2] = test system: endogenous H2AX; test: Anti-EGFP co-immunoprecipitation with endogenous H2AX; type: cell-based, human; conditions: MDA-MB-468 stable subline, anti-EGFP IP, anti-H2AX WB; Figure 5C
Procedure: Logarithmically growing cells were either untreated or treated with different agents for various time periods. The cells were lysed to prepare protein extracts. IP was carried out by incubating approximately 1 mg of the protein lysate with appropriate antibodies. The immunoprecipitates were then analyzed by SDS-PAGE, followed by WB with respective, interacting protein. For Gst-pulldown, Gst-H2AX or various His-TAT-HA-tagged CARP-1 peptides were generated in Escherichia coli (E. coli) BL21 cells essentially as described by us previously. Briefly, the competent E. coli BL-21 (DE3) pLysS cells were transformed separately with various recombinant pGEX-4T-1 or pTAT-HA constructs. The transformed cells were then subjected to selection by combined presence of ampicillin and chloramphenicol; various isolates for each transformation were obtained and bacterial lysates were characterized for expression of fusion peptides. Cells from each isolate were grown in 4 mL of LB medium containing ampicillin only until the optical density (OD)600 reached 0.4–0.8. Expression of fusion peptides was induced over 2–4 h incubation periods after Isopropyl β-D-1-thiogalactopyranoside (IPTG) addition. […]
Figure 5 Fine Mapping of H2AX/CARP-1 interacting epitopes. […] Following stringent washing, the bound proteins were analyzed with WB using anti-HA (upper) or anti-Gst (middle) antibodies. […]

| Compound | inhibition of growth [1] | in-cell interaction with endogenous H2AX [2] |
| --- | --- | --- |
| O=C1N(Cc2ccccc2Cl)c2ccccc2C12NN=C(c1cccc(Cl)c1)S2 (centres unmarked) [CFM-4.16] | robust inhibition of growth |  |
| EGFP-CARP-1 (636–650): EGFP-tagged fusion protein stably expressed in MDA-MB-468 and HeLa sublines (PKTMKVNDLRKELES; also: EGFP fusion kept, end not given here) |  | robust, in vivo (in-cell) interaction |
